Like-named read-outs stand apart in the source and are kept apart here.
Columns and labels:
Type in all cases: in vivo
rice (Oryra sativa) = assay: Test B flooded paddy test; conditions: Oryza sativa, Flood, 250 g ai/ha; scale of 0 to 100 where 0 is no effect and 100 is complete control; read-out: Rice plant response rating
Outline: (§1)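 Rating scale 0–100 (visual, vs untreated controls) after a 13–15 d greenhouse period; application to the flood layer, 3 cm above soil and maintained; plants at 2-leaf stage when treated.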

[1] = system: barnyardgrass (Echinochloa crus-galli); assay: Test B flooded paddy test; conditions: Echinochloa crus-galli, Flood, 250 g ai/ha; scale of 0 to 100 where 0 is no effect and 100 is complete control; read-out: Barnyardgrass plant response rating
Outline: as §1

[2] = system: ducksalad (Heteranthera limosa); assay: Test B flooded paddy test; conditions: Heteranthera limosa, Flood, 250 g ai/ha; scale of 0 to 100 where 0 is no effect and 100 is complete control; read-out: Ducksalad plant response rating
Outline: as §1

[3] = system: sedge, umbrella (small-flower umbrella sedge, Cyperus difformis); assay: Test B flooded paddy test; conditions: Cyperus difformis, Flood, 250 g ai/ha; scale of 0 to 100 where 0 is no effect and 100 is complete control; read-out: Sedge, Umbrella plant response rating
Outline: as §1

[4] = system: ragweed (common ragweed, Ambrosia elatior); assay: Test A postemergence; conditions: Ambrosia artemisiifolia, post-emergence, 240 h, 125 g ai/ha
Outline: (§2)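 Visual injury scores from 0, no effect, to 100, complete control, were assigned versus untreated controls roughly 10 d after treatment in the greenhouse. Test chemicals, formulated with surfactant in a non-phytotoxic solvent, were applied to planted seeds as a preemergence soil spray or postemergence to one- to two-leaf plants 2 to 10 cm tall, in loam–sand soil.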

[5] = system: blackgrass (Alopecurus myosuroides); assay: Test A postemergence; conditions: Alopecurus myosuroides, post-emergence, 240 h, 125 g ai/ha
Outline: as §2

[6] = system: Galium (catchweed bedstraw, Galium aparine); assay: Test A postemergence; conditions: Galium, post-emergence, 240 h, 125 g ai/ha
Outline: as §2

Kochia (Kochia scoparia) = assay: Test A postemergence; conditions: Bassia scoparia, post-emergence, 240 h, 125 g ai/ha
Outline: as §2

[7] = system: barnyardgrass (Echinochloa crus-galli); assay: Test A postemergence; conditions: Echinochloa crus-galli, post-emergence, 240 h, 125 g ai/ha
Outline: as §2

corn (Zea mays) = assay: Test A postemergence; conditions: Zea mays, post-emergence, 240 h, 125 g ai/ha; for plant injury at 125 g/ha: postemergence, visual injury rating after approximately 10 d, read-out: Corn plant response rating (0 to 100 scale, 0 no effect, 100 complete control); for Corn plant response rating (crop injury, 0 = no effect, 100 = complete kill) at 125 g/ha: Postemergence, visual injury after approximately 10 d, 0 to 100 scale where 0 is no effect and 100 is complete control
Outline: as §2

[8] = system: wheat (Triticum aestivum); assay: Test A postemergence; conditions: Triticum aestivum, post-emergence, 240 h, 125 g ai/ha
Outline: as §2

[9] = system: ryegrass, Italian (Italian ryegrass, Lolium multiflorum); assay: Test A postemergence; conditions: Lolium multiflorum, post-emergence, 240 h, 125 g ai/ha
Outline: as §2

[10] = system: giant foxtail (Setaria faberii); assay: Test A postemergence; conditions: Setaria faberi, post-emergence, 240 h, 125 g ai/ha
Outline: as §2

[11] = system: pigweed (Amaranthus retroflexus); assay: Test A postemergence; conditions: Amaranthus retroflexus, post-emergence, 240 h, 125 g ai/ha
Outline: as §2

[12] = system: pigweed (Amaranthus retroflexus); assay: Test A preemergence; conditions: Amaranthus retroflexus, pre-emergence, 240 h; for pest or weed control at 125 g/ha: 125 g ai/ha; for pest or weed control at 500 g/ha: 500 g ai/ha
[13] = postemergence, visual injury rating after approximately 10 d, read-out: Ragweed plant response rating (0 to 100 scale, 0 no effect, 100 complete control)
[14] = postemergence, visual injury rating after approximately 10 d, read-out: Blackgrass plant response rating (0 to 100 scale, 0 no effect, 100 complete control)
[15] = postemergence, visual injury rating after approximately 10 d, read-out: Galium plant response rating (0 to 100 scale, 0 no effect, 100 complete control)
[16] = postemergence, visual injury rating after approximately 10 d, read-out: Kochia plant response rating (0 to 100 scale, 0 no effect, 100 complete control)
[17] = postemergence, visual injury rating after approximately 10 d, read-out: Barnyardgrass plant response rating (0 to 100 scale, 0 no effect, 100 complete control)
[18] = postemergence, visual injury rating after approximately 10 d, read-out: Wheat plant response rating (0 to 100 scale, 0 no effect, 100 complete control)
[19] = postemergence, visual injury rating after approximately 10 d, read-out: Ryegrass, Italian plant response rating (0 to 100 scale, 0 no effect, 100 complete control)
[20] = postemergence, visual injury rating after approximately 10 d, read-out: Foxtail, Giant plant response rating (0 to 100 scale, 0 no effect, 100 complete control)
[21] = postemergence, visual injury rating after approximately 10 d, read-out: Pigweed plant response rating (0 to 100 scale, 0 no effect, 100 complete control)
[22] = preemergence, 0 to 100 scale where 0 is no effect and 100 is complete control, read-out: Pigweed plant response rating
[23] = Preemergence, visual injury vs untreated controls after approximately 10 d, read-out: Pigweed plant response rating (0 to 100 scale where 0 is no effect and 100 is complete control)
[24] = Postemergence, visual injury after approximately 10 d, 0 to 100 scale where 0 is no effect and 100 is complete control, read-out: Plant response rating, Ragweed
[25] = Postemergence, visual injury after approximately 10 d, 0 to 100 scale where 0 is no effect and 100 is complete control, read-out: Plant response rating, Blackgrass
[26] = Postemergence, visual injury after approximately 10 d, 0 to 100 scale where 0 is no effect and 100 is complete control, read-out: Plant response rating, Galium
[27] = Postemergence, visual injury after approximately 10 d, 0 to 100 scale where 0 is no effect and 100 is complete control, read-out: Plant response rating, Kochia
[28] = Postemergence, visual injury after approximately 10 d, 0 to 100 scale where 0 is no effect and 100 is complete control, read-out: Plant response rating, Wheat
[29] = Postemergence, visual injury after approximately 10 d, 0 to 100 scale where 0 is no effect and 100 is complete control, read-out: Plant response rating, Ryegrass, Italian
[30] = Postemergence, visual injury after approximately 10 d, 0 to 100 scale where 0 is no effect and 100 is complete control, read-out: Plant response rating, Foxtail, Giant
[31] = Postemergence, visual injury after approximately 10 d, 0 to 100 scale where 0 is no effect and 100 is complete control, read-out: Plant response rating, Pigweed
[32] = Preemergence, visual injury rating after approximately 10 d, read-out: Pigweed plant response rating (0 to 100 scale, 0 is no effect, 100 is complete control)
[33] = preemergence, visual injury rating about 10 d after treatment, 0 to 100 scale (0 no effect, 100 complete control), read-out: Pigweed plant response rating

SMILES	pest or weed control at 250 g/ha (rice (Oryra sativa)) [%]	pest or weed control at 250 g/ha [1] [%]	pest or weed control at 250 g/ha [2] [%]	pest or weed control at 250 g/ha [3] [%]	pest or weed control at 125 g/ha [4, 13] [%]	pest or weed control at 125 g/ha [6, 15] [%]	pest or weed control at 125 g/ha (Kochia (Kochia scoparia); [16]) [%]	pest or weed control at 125 g/ha [7, 17] [%]	plant injury at 125 g/ha (corn (Zea mays)) [%]	plant injury at 125 g/ha [8, 18] [%]	pest or weed control at 125 g/ha [9, 19] [%]	pest or weed control at 125 g/ha [10, 20] [%]	pest or weed control at 125 g/ha [11, 21] [%]	pest or weed control at 125 g/ha [12, 22] [%]	pest or weed control at 500 g/ha [12, 23] [%]	pest or weed control at 125 g/ha [4, 24] [%]	pest or weed control at 125 g/ha [5, 25] [%]	pest or weed control at 125 g/ha [6, 26] [%]	pest or weed control at 125 g/ha (Kochia (Kochia scoparia); [27]) [%]	Corn plant response rating (crop injury, 0 = no effect, 100 = complete kill) at 125 g/ha (corn (Zea mays)) [%]	further results
CN1C[C@H](c2cc(F)cc(F)c2)[C@@H](C(=O)Nc2ccc(C(F)(F)F)nc2)C1=O [Compound 870]	0	0	0	0	0	0	0	0	0	0	0	0	0	0	0	–	–	–	–	–	pest or weed control at 125 g/ha [5, 14]: 0%
CC(C)COc1cccc([C@H]2CNC(=O)[C@@H]2C(=O)Nc2cccc(F)c2F)c1 [Compound 965]	0	20	85	0	–	–	–	–	–	–	–	–	–	–	–	0	30	40	0	30	pest or weed control at 125 g/ha ([7]; Postemergence, visual injury after approximately 10 d, 0 to 100 scale where 0 is no effect and 100 is complete control, read-out: Plant response rating, Barnyardgrass): 80%; plant injury at 125 g/ha [8, 28]: 20%; pest or weed control at 125 g/ha [9, 29]: 0%; pest or weed control at 125 g/ha [10, 30]: 70%; pest or weed control at 125 g/ha [11, 31]: 0%; pest or weed control at 125 g/ha [12, 32]: 0%; pest or weed control at 500 g/ha [12, 33]: 0%
COc1c(F)ccc([C@H]2CN(C)C(=O)[C@@H]2C(=O)Nc2ccccc2C(F)(F)F)c1Cl [Compound 896]	20	45	25	0	0	40	20	90	20	30	50	90	20	20	40	–	–	–	–	–	pest or weed control at 125 g/ha [5, 14]: 40%
CSc1ccccc1NC(=O)[C@H]1C(=O)NC[C@@H]1c1cc(F)cc(Cl)c1 [Compound 977]	15	15	100	0	–	–	–	–	–	–	–	–	–	–	–	20	0	40	70	0	plant injury at 125 g/ha [8, 28]: 0%; pest or weed control at 125 g/ha [9, 29]: 0%; pest or weed control at 125 g/ha [10, 30]: 90%; pest or weed control at 125 g/ha [11, 31]: 30%; pest or weed control at 125 g/ha [12, 32]: 40%; pest or weed control at 500 g/ha [12, 33]: 70%
O=C1NC[C@H](c2cc(F)c(C(F)(F)F)c(F)c2)[C@H]1C(=O)Nc1cccc(F)c1F [Compound 838]	0	40	100	0	40	50	70	90	70	30	30	90	80	80	90	–	–	–	–	–	–
CN1C[C@H](c2cc(F)cc(Cl)c2)[C@@H](C(=O)Nc2ccccc2S(C)(=O)=O)C1=O [Compound 979]	0	60	100	0	–	–	–	–	–	–	–	–	–	–	–	20	60	40	30	30	plant injury at 125 g/ha [8, 28]: 50%; pest or weed control at 125 g/ha [9, 29]: 20%; pest or weed control at 125 g/ha [10, 30]: 90%; pest or weed control at 125 g/ha [11, 31]: 40%; pest or weed control at 125 g/ha [12, 32]: 40%; pest or weed control at 500 g/ha [12, 33]: 90%
O=C1NC[C@H](c2cc(F)c(C(F)(F)F)c(F)c2)[C@H]1C(=O)Nc1ccccc1F [Compound 837]	0	0	70	0	10	50	20	90	60	0	50	90	30	20	80	–	–	–	–	–	–

Reference: patent publication US12077503B2, “Substituted cyclic amides and their use as herbicides” (FMC CORPORATION, priority 2015, dated 2024)
